pIC50: −log10 of the molar value. Activity calls are given as the source filed them. The rule behind the calls is not given here.
Legend:
[1] = Drug distribution in BALB/c mouse lung xenografted with human A549 cells at 2.5 mg/kg, sc measured after 24 hrs by HPLC analysis; type: ADME, organism-based; conditions: in vivo
[2] = test system: SW480; assay: Antitumor activity against human SW480 cells xenografted in BALB/c mouse assessed as tumor inhibition rate at 0.019 mg/kg, iv administered once every 2 days for 18 days; type: functional; design: scale not given: the % may be the effect or the level left; conditions: time 18 day
[3] = test system: SW480; assay: Cytotoxicity against human SW480 cells assessed as reduction in cell viability incubated for 48 hrs by MTT assay; type: functional, cell-based; conditions: SW480, 48 h
[4] = test system: SW480; assay: Cytotoxicity against human SW480 cells assessed as cell viability at 25 uM incubated for 48 hrs by MTT assay; type: functional; conditions: read-out: Activity
[5] = Drug distribution in BALB/c mouse spleen xenografted with human A549 cells at 2.5 mg/kg, iv measured after 24 hrs by HPLC analysis; type: ADME, organism-based; conditions: in vivo
[6] = test system: SW480; assay: Antitumor activity against human SW480 cells xenografted in BALB/c mouse assessed as reduction in tumor volume at 0.019 mg/kg, iv administered once every 2 days and measured on day 18; type: functional; design: scale not given: the % may be the effect or the level left; conditions: time 18 day
[7] = test system: SW480; assay: Antitumor activity against human SW480 cells xenografted in BALB/c mouse assessed as tumor burden at 0.019 mg/kg, iv administered once every 2 days for 18 days (reference value: 1.88%); type: functional; conditions: time 18 day
[8] = Drug distribution in BALB/c mouse spleen xenografted with human A549 cells at 2.5 mg/kg, sc measured after 24 hrs by HPLC analysis; type: ADME, organism-based; conditions: in vivo
[9] = test system: HT-29; assay: Cytotoxicity against human HT-29 cells assessed as cell viability at 25 uM incubated for 48 hrs by MTT assay; type: functional; conditions: read-out: Activity
[10] = test system: HT-29; assay: Cytotoxicity against human HT-29 cells assessed as reduction in cell viability incubated for 48 hrs by MTT assay; type: functional, cell-based; conditions: HT-29, 48 h
[11] = Drug distribution in BALB/c mouse heart xenografted with human A549 cells at 2.5 mg/kg, sc measured after 24 hrs by HPLC analysis; type: ADME, organism-based; conditions: in vivo
[12] = Drug distribution in BALB/c mouse heart xenografted with human A549 cells at 2.5 mg/kg, iv measured after 24 hrs by HPLC analysis; type: ADME, organism-based; conditions: in vivo
[13] = test system: SW480; assay: Antitumor activity against human SW480 cells xenografted in BALB/c mouse assessed as increase in body weight at 0.019 mg/kg, iv administered once every 2 days and measured after 12 days; type: functional, organism-based; conditions: time 12.0 day
[14] = Drug distribution in BALB/c mouse lung xenografted with human A549 cells at 2.5 mg/kg, iv measured after 24 hrs by HPLC analysis; type: ADME, organism-based; conditions: in vivo
[15] = test system: SW480; assay: Antitumor activity against human SW480 cells xenografted in BALB/c mouse assessed as tumor burden at 0.1 mg/kg, iv administered once every 2 days for 18 days (reference value: 1.88%); type: functional; conditions: time 18 day
[16] = test system: SW480; assay: Potency index, ratio of CPT IC50 to test compound IC50 for cytotoxicity against human SW480 cells; type: functional
[17] = test system: THP-1; assay: Cytotoxicity against human THP-1 cells assessed as reduction in cell viability incubated for 48 hrs by MTT assay; type: toxicity, cell-based; conditions: thp-1, 48 h
[18] = Drug distribution in BALB/c mouse heart xenografted with human A549 cells at 22.23 mg/kg, iv measured after 24 hrs by HPLC analysis; type: ADME, organism-based; conditions: in vivo
[19] = Stability in human plasma assessed as drug hydrolysis after 5 hrs by HPLC analysis; type: ADME, cell-free; conditions: read-out: Drug degradation
[20] = test system: HT-29; assay: Potency index, ratio of CPT IC50 to test compound IC50 for cytotoxicity against human HT-29 cells; type: functional
[21] = test system: SW480; assay: Antitumor activity against human SW480 cells xenografted in BALB/c mouse assessed as reduction in tumor volume at 0.1 mg/kg, iv administered once every 2 days and measured on day 8; type: functional, organism-based; conditions: time 8.0 day
[22] = test system: SW480; assay: Antitumor activity against human SW480 cells xenografted in BALB/c mouse assessed as tumor inhibition rate at 0.1 mg/kg, iv administered once every 2 days for 18 days; type: functional; design: scale not given: the % may be the effect or the level left; conditions: time 18 day
[23] = test system: HT-29; assay: Cytotoxicity against human HT-29 cells assessed as reduction in cell viability at 10 to 50 uM incubated for 48 hrs by MTT assay; type: functional, cell-based; conditions: dose 10-50 µM
[24] = test system: SW480; assay: Antitumor activity against human SW480 cells xenografted in BALB/c mouse assessed as increase in body weight at 0.1 mg/kg, iv administered once every 2 days and measured after 12 days; type: functional, organism-based; conditions: time 12.0 day
[25] = test system: CCD-18Co; assay: Cytotoxicity against human CCD-18Co cells assessed as reduction in cell viability incubated for 48 hrs by MTT assay; type: toxicity, cell-based
[26] = Drug distribution in BALB/c mouse spleen xenografted with human A549 cells at 22.23 mg/kg, iv measured after 24 hrs by HPLC analysis; type: ADME, organism-based; conditions: in vivo
[27] = test system: SW480; assay: Antitumor activity against human SW480 cells xenografted in BALB/c mouse assessed as tumor growth inhibition at 0.1 mg/kg, iv administered once every 2 days for 18 days; type: functional, organism-based; conditions: time 18.0 day
[28] = Stability in human plasma assessed as parent compound remaining after 18 hrs by HPLC analysis; type: ADME, cell-free; conditions: read-out: Stability
[29] = test system: SW480; assay: Antitumor activity against human SW480 cells xenografted in BALB/c mouse assessed as fold decrease in cell viability by measuring Ki67 positive cells at 0.1 mg/kg, iv administered once every 2 days for 18 days by immunohistochemical analysis relative to CPT; type: functional; conditions: time 18 day
[30] = test system: HT-29; assay: Cytotoxicity against human HT-29 cells assessed as reduction in cell viability at greater than 0.078 uM incubated for 48 hrs by MTT assay; type: functional, cell-based
[31] = test system: SW480; assay: Antitumor activity against human SW480 cells xenografted in BALB/c mouse assessed as fold decrease in cell viability by measuring Ki67 positive cells at 0.1 mg/kg, iv administered once every 2 days for 18 days by immunohistochemical analysis relative to control; type: functional; conditions: time 18 day
[32] = test system: SW480; assay: Antitumor activity against human SW480 cells xenografted in BALB/c mouse assessed as decrease in Ki67 expression at 0.1 mg/kg, iv administered once every 2 days for 18 days by immunohistochemical analysis; type: functional, organism-based; conditions: time 18.0 day
[33] = test system: SW480; assay: Antitumor activity against human SW480 cells xenografted in BALB/c mouse assessed as reduction in tumor volume at 0.1 mg/kg, iv administered once every 2 days and measured on day 18; type: functional; design: scale not given: the % may be the effect or the level left; conditions: time 18 day
[34] = Drug uptake in human SW480 cells assessed as increase in blue fluorescence at 30 uM incubated for 1 hr by DRAQ5 staining based confocal microscopy analysis; type: ADME, cell-based; conditions: sw480, 1 h
[35] = Drug distribution in BALB/c mouse heart xenografted with human A549 cells at 22.23 mg/kg, sc measured after 24 hrs by HPLC analysis; type: ADME, organism-based; conditions: in vivo
[36] = Drug distribution in BALB/c mouse tumor xenografted with human A549 cells at 22.23 mg/kg, sc measured after 24 hrs by HPLC analysis; type: ADME, organism-based, Neoplasm; conditions: in vivo
[37] = Drug distribution in BALB/c mouse lung xenografted with human A549 cells at 22.23 mg/kg, sc measured after 24 hrs by HPLC analysis; type: ADME, organism-based; conditions: in vivo
[38] = Stability in human plasma assessed as drug hydrolysis after 15 mins by HPLC analysis; type: ADME, cell-free; conditions: read-out: Drug degradation
[39] = Drug distribution in BALB/c mouse tumor xenografted with human A549 cells at 22.23 mg/kg, iv measured after 24 hrs by HPLC analysis; type: ADME, organism-based, Neoplasm; conditions: in vivo

CC[C@@]1(O)C(=O)OCc2c1cc1n(c2=O)Cc2cc3ccccc3nc2-1 [CAMPTOTHECIN]
Drug uptake [1]: Active
Activity [2]: 56%
pIC50 [3]: 5.07
viability at 25 µM [4]: 29.5%
Drug uptake [5]: Active
Activity [6]: 6.8%
Activity [7]: 1.59%
Drug uptake [8]: Active
viability at 25 µM [9]: 32.4%
pIC50 [10]: 5.63
Drug uptake [11]: Active
Drug uptake [12]: Active
Activity [13]: inactive
Drug uptake [14]: Active

CC[C@@]1(OC(=O)CCCOCCOCCONC(=O)CCN2C(=O)CC(SC[C@H](NC(C)=O)C(=O)N[C@H]3CSSC[C@@H](C(=O)O)NC(=O)[C@H](CC(=O)O)NC(=O)[C@@H]4CCCN4C(=O)CNC(=O)[C@H](CCCCN)NC(=O)[C@H](CC(=O)O)NC(=O)CNC(=O)[C@H](CCCNC(=N)N)NC3=O)C2=O)C(=O)OCc2c1cc1n(c2=O)Cc2cc3ccccc3nc2-1 (stereo partly drawn)
Activity [15]: 1.44%
Ratio IC50 [16]: 24
Activity [17]: Non-Toxic
pIC50 [3]: 6.49
Drug uptake [18]: Active
metabolised at 5 h [19]: 15.5%
Ratio IC50 [20]: 6.7
viability at 25 µM [4]: 22.3%
Activity [21]: Active
Activity [22]: 75%
Activity [23]: Active
Activity [24]: Active
Activity [25]: Non-Toxic
Drug uptake [26]: Active
Activity [27]: Active
remaining at 18 h [28]: 76.4%
fold change (FC) [29]: 6.4
Activity [30]: Active
fold change (FC) [31]: 10.5
Activity [32]: Active
viability at 25 µM [9]: 16.3%
pIC50 [10]: 6.46
Activity [33]: 39.7%
Drug uptake [34]: Active
Drug uptake [35]: Active
Drug uptake [36]: Active
Drug uptake [37]: Active
metabolised at 0.25 h [38]: 1.4%
Drug uptake [39]: Active
